Here are results for one molecule from US20130053435A1, “Methods of Treating Alcohol Intoxication, Alcohol Use Disorders and Alcohol Abuse Which Comprises the Administration of Dihydromyricetin” (priority 2011, published 2013).

Series [1] concerns PTZ-induced seizures in rats. In words: PTZ-induced seizures after EtOH withdrawal. Type of series: in vivo, rat. Particulars: for PTZ-induced seizure duration: FIG. 12C. As for the experimental part: Pentylenetetrazol (PTZ)-induced seizures were also measured in rats. […] PTZ dose used in this study (42 mg/kg in saline) was determined as the dose that induced seizures in 75% naïve rats. Briefly, after i.p. injection of PTZ, the time to onset and the duration of tonic-clonic seizures was determined as described previously. The researchers who conducted the animal behavior experiments were blind to treatment groups. Animals were used once only for any determination.
48 hr after injection, rats were sub-divided into 3 groups to measure signs of EtOH withdrawal.
As described herein, hyperexcitability was assayed with PTZ-induced seizures duration (FIG. 12C). PTZ induced 0.9±0.2 min seizures in subjects of the vehicle group and 6.5±1.1 min seizures in subjects of the EtOH group.

A short description of series [2]: Metabolic studies in rats. The class given is in vivo, rat. To be noted: DHM oral administration, 1 mg/kg.
A further series has as its system GABAARs. In words: Whole-cell patch-clamp, cultured hippocampal neurons 24 h after EtOH/DHM exposure. Type of series: cell-based, rat. Particulars: 24 h withdrawal. On the procedure: Control neurons were treated with corresponding vehicle as same procedure as EtOH-treated neurons. The concentration of 60 mM EtOH was selected in view of prior experiments. See Liang J et al (2007). Specifically, the concentration of 60 mM EtOH used to treat cultured neurons was chosen to match blood levels measured in adult rats after intoxication with gavage of 5 g/kg, which produced about 60 mM blood peak plasma [EtOH] lasting for about 2 to 3 hr and induced significant plasticity in GABAARs and tolerance.
Then, immediately before electrophysiological recording, cells grown on coverslips were transferred to a perfusion chamber (Warner Instruments) and visualized with an inverted microscope (TE200, Nikon). Whole-cell patch-clamp recordings were obtained from cultured neurons under voltage-clamp mode at room temperature (22-25° C.), at a holding potential of −70 mV. Cells were perfused with an extracellular solution (137 mM NaCl, 5 mM KCl, 2 mM CaCl2, 1 mM MgCl2, 20 mM glucose and 10 mM HEPES (310-320 Osm, pH adjusted to 7.40 with NaOH)). Glass pipettes were filled with the same internal solution as that in slice recordings, with an input resistance of 4-7 MΩ. GABAAR-mediated mIPSCs were recorded using the same pharmacological method as mentioned above. […] Electrical signals were amplified using a Multiclamp 200 B amplifier (Molecular Devices, USA). After establishing the whole-cell configuration, at least 10 min were allowed to elapse before the application of drug to allow the membrane patch to stabilize and exchange of ions between the recording electrode and the cytosol to occur. Data were acquired with pClamp software (Version 10.0, Molecular Devices, USA), digitized at 20 kHz (Digidata 1440A, Molecular Devices), and analyzed using the Clampfit software (Version 10.0, Molecular Devices) and the Mini Analysis Program (versions 6.0.7, Synaptosoft, Decatur, Ga.) using methods known in the art. See Hamann M, et al. (2002) Neuron 33(4):625-633; Stell B M and Mody I (2002) J Neurosci 22(10): RC223; and Liang (2007).
Background: The patch-clamp technique gives a direct electrical read-out from membranes.

The subject of another series is GABAAR α4 subunit. In words: Western blot of hippocampal tissue after 48 hr withdrawal. Type of series: in vivo, rat. On the procedure: Parallel Western blots from rat hippocampus were examined to determine whether EtOH induced changes in total protein of GABAAR α4 subunits. Hippocampal tissues from rats were lysed in RIPA-buffer containing 1% Triton X-100, 0.1% sodium dodecyl sulfate (SDS), 50 mM Na3PO4, 150 mM NaCl, 2 mM EDTA, 50 mM NaF, 10 mM sodium pyrophosphate, 1 mM sodium orthovanadate, 1 mM phenylmethylsulfonyl fluoride (PMSF) and Complete protease inhibitor cocktail (Roche). The lysate was centrifuged for 15 min (14,000×g, 4° C.) and the supernatant collected for Western blot analysis. Western blots were performed using rabbit anti-GABAAR α4 (aa 379-421) and mouse anti-β-actin (Sigma) followed by HRP-conjugated secondary antibodies. Bands were detected using ECL detection kit (Amersham) and analyzed by densitometric measurements using ImageQuant 5.2 (Molecular Dynamics). Bands were stripped with buffer containing 62.5 mM Tris-HCl, 100 mM β-mercaptoethanol and 2% SDS (pH 6.7) and reprobed several times. Protein concentrations were determined with BCA Protein Assay Kit (Pierce) according to the manufacturer instructions.
The total protein content of GABAAR α4 subunit in hippocampus 48 hr after the above 4 treatments was assayed.

For series [3], the system named is voluntary EtOH consumption in rats. Put plainly: Intermittent access two-bottle choice voluntary EtOH intake. Type of series: in vivo, rat. Particulars: for EtOH consumption: E+D/water sub-group switched after 4 weeks. On the procedure: All fluids were presented in 100 ml graduated glass cylinders with stainless-steel drinking spouts inserted 15 min after the lights went off in the reversed light/dark cycle room. Bottles were weighed 30 min and 24 hrs after the fluids were presented. Each rat was weighed daily to monitor health and calculate the grams of ethanol intake per kilogram of body weight.
Sweetener (2 pk/L) was added to every bottle for the first week. Sweetener (1 pk/L) was added to every bottle for the second week. […] Rats had unlimited access to two bottles of water between the EtOH-access periods. The placement of the EtOH bottle was alternated each EtOH drinking session to control for side preferences. Rats were maintained on 20% EtOH intermittent access two-bottle choice paradigm for 7 weeks (21 EtOH-access sessions). […] The rest of the EtOH group continued EtOH-access sessions. EtOH consumption was expressed as grams of EtOH consumed per kilogram of body weight. Rats access to two bottles of water were taken as the control-group. There was no significant difference in body weight between the control and the EtOH-drinking rats at the end of the experiments.

Where [4] appears, read: neurons treated with EtOH 60 mM + DHM.

For `O=C1c2c(O)cc(O)cc2O[C@H](c2cc(O)c(O)c(O)c2)[C@H]1O` [DHM, (2R,3R)-3,5,7-trihydroxy-2-(3,4,5-trihydroxyphenyl)-2,3-dihydrochromen-4-one], the PTZ-seizure duration entry is “did not induce any significant or observable changes in seizure duration” in series [1] (24 hr after DHM 1 mg/kg i.p. alone) and 0.9 ± 0.2 min in series [1] (24 hr withdrawal from DHM+EtOH (1 mg/kg+3 g/kg, i.p.), PTZ 42 mg/kg). In addition, the PTZ seizure incidence in series [1] (24 hr withdrawal from DHM+EtOH) is 85%. Also, the PTZ-induced seizure duration in series [1] (48 hr withdrawal, EtOH+DHM group) turned out to be 1.7 ± 0.8 min; in series [1] (48 hr, DHM group), 0.6 ± 0.4 min. For the same molecule, the “EtOH intoxication/withdrawal-induced increases in PTZ-induced seizure duration and incidence, female rats” value in series [1] (female rats, co-administration of DHM+EtOH) is reported as “inhibits, reduces and/or prevents”. In series [2], the “metabolic change (food and water intake, urine volume and stool volume)” value was “no metabolic change”. The “GABAAR function after exposure/withdrawal” value in the series with GABAARs (DHM alone exposure) is given as “did not alter GABAAR function”. In the series on GABAARs (setting [4]), the “Itonic magnitude after acute EtOH (60 mM)” value is listed as 25.2±1.2 pA. For the same molecule, in the series with GABAARs (setting [4]), the “averaged Itonic magnitude” value is reported as 11.2±0.6 pA. For the same molecule, the “mIPSC potentiation by EtOH” value with GABAARs (setting [4]) worked out at 8.3±9.4%. For the same molecule, in the series on GABAAR α4 subunit (DHM group), the “total α4 subunit level” value is 88.3±10.3 % of control. For the same molecule, in the series with GABAAR α4 subunit (EtOH+DHM group), the “total α4-protein level” value is on record as 93.0±21.0 % of control. The molecule further came in with an EtOH-intake in series [3] (E+D/water group, DHM 0.05 mg/ml in 20% EtOH from start) of 2.6 ± 0.4 g/kg/day. For the same molecule, the EtOH consumption came to 1.2 ± 0.2 g/kg/day in series [3] (end of 6th week) and 1.8 ± 1.0 g/kg/day in series [3] (end of the 5th week).
